Data as given in paper PMC10500570 (ACS Omega, 2023).

Legend:
[1] = biological target: Human recombinant AChE (Homo sapiens, UniProt P22303); assay: AChE inhibition, Ellman assay; format: biochemical
[2] = biological target: BChE from equine serum (Equus caballus, UniProt P81908); assay: BChE inhibition, Ellman assay; format: biochemical
[3] = tested on: SH-SY5Y cells; assay: SRB cytotoxicity assay; format: cell-based; conditions: Homo sapiens, 48 h, read-out: GI50 ± SD

Chain of Human recombinant AChE (P22303 32-614): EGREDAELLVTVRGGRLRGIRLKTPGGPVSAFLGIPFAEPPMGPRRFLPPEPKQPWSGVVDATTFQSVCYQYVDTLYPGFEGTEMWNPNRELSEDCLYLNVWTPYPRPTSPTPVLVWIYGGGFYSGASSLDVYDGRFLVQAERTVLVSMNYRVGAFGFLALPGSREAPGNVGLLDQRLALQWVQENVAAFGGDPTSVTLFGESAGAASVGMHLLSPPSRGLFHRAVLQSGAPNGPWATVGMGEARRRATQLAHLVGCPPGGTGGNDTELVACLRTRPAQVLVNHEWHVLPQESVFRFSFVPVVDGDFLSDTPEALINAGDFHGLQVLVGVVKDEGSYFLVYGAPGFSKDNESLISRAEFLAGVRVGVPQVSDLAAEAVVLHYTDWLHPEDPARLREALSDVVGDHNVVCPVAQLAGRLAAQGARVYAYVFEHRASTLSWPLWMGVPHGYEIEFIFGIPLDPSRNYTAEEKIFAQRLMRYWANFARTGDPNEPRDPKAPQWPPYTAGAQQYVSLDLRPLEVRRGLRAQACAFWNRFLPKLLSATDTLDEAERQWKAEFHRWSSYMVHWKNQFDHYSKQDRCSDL
Chain of BChE from equine serum (P81908 whole entry): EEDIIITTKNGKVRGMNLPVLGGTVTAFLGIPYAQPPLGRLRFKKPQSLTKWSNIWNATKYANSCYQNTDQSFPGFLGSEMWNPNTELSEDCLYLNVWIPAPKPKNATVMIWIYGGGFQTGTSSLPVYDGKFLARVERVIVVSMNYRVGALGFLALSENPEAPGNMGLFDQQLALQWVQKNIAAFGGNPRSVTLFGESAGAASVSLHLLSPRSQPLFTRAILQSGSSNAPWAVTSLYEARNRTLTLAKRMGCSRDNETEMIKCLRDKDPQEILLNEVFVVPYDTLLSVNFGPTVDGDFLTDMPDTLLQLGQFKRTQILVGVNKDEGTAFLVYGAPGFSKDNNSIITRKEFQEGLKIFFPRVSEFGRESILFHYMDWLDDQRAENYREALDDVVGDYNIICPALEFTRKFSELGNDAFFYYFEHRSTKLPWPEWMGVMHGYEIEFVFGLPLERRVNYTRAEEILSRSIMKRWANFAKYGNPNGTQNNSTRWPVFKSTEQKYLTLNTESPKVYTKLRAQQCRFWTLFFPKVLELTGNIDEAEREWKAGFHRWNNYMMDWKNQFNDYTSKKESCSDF

| Compound | IC50 [1] [µM] | IC50 [2] [µM] | GI50 [3] [µM] | SI (selectivity index) ([1]; Selectivity index = BChE IC50/AChE IC50) |
| --- | --- | --- | --- | --- |
| O=C1C=C(OCCCCCCn2cc(CNc3ccc4ncc(-c5ccccc5)nc4c3)nn2)C(=O)c2ccccc21 [Compound 7c] | > 100 | > 100 | > 100 | – |
| O=C1C=C(OCCCCCCCCn2cc(CNc3ccc4ncc(-c5ccccc5)nc4c3)nn2)C(=O)c2ccccc21 [Compound 7d] | > 100 | 4.4 ± 0.4 | > 100 | <0.044 |
